# Reference: patent US10149470B2, “Methods and compositions for vein harvest and autografting” (Vanderbilt University, priority 2009, dated 2018)
# Experiments:
# Type in all cases: cell-based
# [1] = system: human saphenous vein; details: 15 min, pH 7.4
# Protocol: De-identified discarded segments of human saphenous vein were collected (n=66), after informed consent approved by the Institutional Review Board of the Vanderbilt University (Nashville, Tenn.), from patients undergoing coronary artery bypass or peripheral vascular bypass surgery. The veins were stored in a saline solution until the end of the surgical procedure at which time they were placed in cold transplant harvest buffer (100 mM potassium lactobionate, 25 mM KH2PO4, 5 mM MgSO4, 30 mM raffinose, 5 mM adenosine, 3 mM glutathione, 1 mM allopurinol, 50 g/L hydroxyethyl starch, pH 7.4) and stored at 4° C. The vessels were tested within 24 hours of harvest. The presense of blue markings were assessed for each HSV. Rings 1.0 mm in width were cut from segments of saphenous vein dissected free of fat and connective tissue, stripped of the endothelium and were suspended in a muscle bath containing a bicarbonate buffer (120 mM NaCl, 4.7 mM KCl, 1.0 mM MgSO4, 1.0 mM NaH2PO4, 10 mM glucose, 1.5 mM CaCl2, and 25 mM […], pH 7.4), gassed with 95% O2/5% CO2 at 37° C. The rings were manually stretched to 4 g of tension, and was maintained at a resting tension of 1 g was obtained and equilibrated for ˜2 hr. […] To determine viability, the rings were contracted with 110 mM KCl (with equimolar replacement of NaCl in bicarbonate buffer), and the force generated was measured. […]
# [2] = system: porcine saphenous veins; details: pig, 15 min, 50 %
# Protocol: Freshly isolated porcine saphenous veins were used to test the effect of different marking methods. The veins were collected and placed in cold transplant harvest buffer [100 mM potassium lactobionate, 25 mM KH2PO4, 5 mM MgSO4, 30 mM raffinose, 5 mM adenosine, 3 mM glutathione, 1 mM allopurinol, 50 g/L hydroxyethyl starch, pH 7.4]. The vessels were stored in transplant harvest buffer at 4° C. and tested within 24 hours of harvest and. To test the viability, rings 1.0 mm in width were cut from segments of saphenous vein and dissected free of fat and connective tissue. Saphenous vein rings were untreated (Control; n=6), marked with the surgical skin marker (n=3), or 50% isopropyl alcohol (the solvent used in the surgical marker; n=3) and incubated for 15 min at room temperature. The rings were then equilibrated in a muscle bath, contracted with KCl, and force was measured and converted to stress (10^5 N/m^2). […] (FIG. 7).
# [3] = system: porcine saphenous vein; assay: KCl-induced contraction of porcine saphenous vein after stretch injury, with or without dye; details: 50 μM dye for 30 min on rings from stretched segments; FIG. 10
# Protocol: Freshly isolated porcine saphenous vein was collected in cold transplant harvest buffer (100 mM potassium lactobionate, 25 mM KH2PO4, 5 mM MgSO4, 30 mM raffinose, 5 mM adenosine, 3 mM glutathione, 1 mM allopurinol, 50 g/L hydroxyethyl starch, pH 7.4). The vessels were tested within 24 hours of harvest and storage in transplant harvest buffer at 4° C. The vein was dissected free of fat and connective tissue and cut into 2 cm long segments. The segments were stretched to twice their resting length (stretched; n=7) or not manipulated (control; n=12). After stretching, the segments from both groups were further divided. A solution of erioglaucine (FCF, 2.6 mM, in 5% propylene glycol and water) or vehicle was then applied with a cotton swab in a longitudinal line to the untreated (FCF; n=8) or the stretched (Stretched+FCF; n=3) vein segments. The segments were incubated at room temperature for 15 min in Plasmalyte and then cut into rings. The rings were suspended in a muscle bath containing a bicarbonate buffer (120 mM NaCl, 4.7 mM KCl, 1.0 mM MgSO4, 1.0 mM NaH2PO4, 10 mM glucose, 1.5 mM CaCl2, and 25 mM […], pH 7.4), bubbled with 95% O2/5% CO2 at 37° C. The rings were manually stretched to 4 g of tension, and maintained at a resting tension of 1 g and equilibrated for ˜2 hr.
# Rings from stretched segments were either incubated with 50 μM Allura Red (+Red) or 50 μM of erioglaucine (+FCF) for 30 min. The rings were then allowed to equilibrate in the bicarbonate buffer for before contracting with 110 mM KCl. Force generated was converted to stress (10^5 N/m^2). Data represent relative contractile response to Control rings which was set as 100%.
# [4] = system: porcine saphenous vein; assay: Intimal thickening of distended porcine saphenous vein rings in 14 day organ culture; details: 50 μM dye, 14 days culture, distended to >300 mm Hg, compared to Distended-Control; FIG. 14
# Protocol: Fresh porcine saphenous vein was harvested by a no touch method under sterile conditions and stored in cold transplant harvest buffer (100 mM potassium lactobionate, 25 mM KH2PO4, 5 mM MgSO4, 30 mM Raffinose, 5 mM Adenosine, 3 mM Glutathione, 1 mM Allopurinol, 50 g/L Hydroxyethyl starch, pH 7.4). The vessels were used within 24 hr of harvest. The veins were divided into three segments that were left untreated (Unmanipulated, n=7), distended (Distended, n=8) to >300 mm Hg, or distended in the presence of the pressure relief valve (Pop Off, n=7). Each segment was then cut into ˜1 mm rings and one ring from each condition was immediately fixed in formalin (Pre-culture). The other rings were cultured in RPMI medium supplemented with 1% L-glutamine, penicillin/streptomycin and 30% Fetal bovine serum at 5% CO2 and 37° C. in the absence (Control) or presence of either 50 μM erioglaucine (FCF), 50 μM brilliant blue G (BBG) or 50 μM Allura Red (Red) for 14 days. After 14 days, the rings were fixed in formalin, sectioned at 5 μm and stained using Verhoff Van Gieson stain. Light micrograph of the rings was captured using a Axiovert 200 and intimal thickness was measured using AxioVision.
# [5] = system: porcine coronary artery; assay: Papaverine effect on tension and on histamine/KCl contraction of porcine coronary artery rings
# Protocol: Porcine coronary arteries were freshly isolated from euthanized pigs and placed directly into cold transplant harvest buffer (100 mM potassium lactobionate, 25 mM KH2PO4, 5 mM MgSO4, 30 mM Raffinose, 5 mM Adenosine, 3 mM Glutathione, 1 mM Allopurinol, 50 g/L Hydroxyethyl starch, pH 7.4). Coronary arteries were dissected free of fat and adventitial tissues and the endothelium was removed. Transverse rings (1.0 mm thickness) were cut and suspended in muscle bath, via silk 3-0 linked to force transducers (Kent Scientific, CT) interfaced with a Data Translation A-D board (Data Translation, MA). Data was acquired with the Power Lab software program. Porcine coronary artery rings were suspended in a muscle bath and equilibrated in Krebs Ringer bicarbonate buffer for 2 h. The rings were stretched and the length progressively adjusted until maximal tension was obtained. The rings were contracted with 110 mM KCl (with equimolar replacement of NaCl in bicarbonate buffer), and the force generated was measured and converted to stress [Newtons (N)/m^2]=force (g)×0.0987/area, where area is equal to the wet weight [mg/length (mm at maximal length)] divided by 1.055. Rings were washed and equilibrated for another 30 mins. Rings were treated with 5 μM histamine, 110 mM KCl, 1 mM papaverine (PAP), 1 mM papaverine for 10 min followed by 5 μM histamine or 1 mM papaverine for 10 min followed by 110 mM KCl and force generated was measured- and converted to stress. Representative force tracings of rings treated with 5 μM histamine (Hist), 110 mM KCl (KCl), 1 mM papaverine (PAP), 1 mM papaverine for 10 min followed by 5 μM histamine (Pap+Hist) or 1 mM papaverine for 10 min followed by 110 mM KCl (Pap+KCl) were depicted in FIG. 18A. Decrease in stress was converted to a percentage of the maximal initial KCl contraction which was set as 100%.
# [6] = system: human saphenous vein; assay: Papaverine effect on tension and on norepinephrine contraction of human saphenous vein rings
# Protocol: De-identified discarded segments of human saphenous vein (n=6) were collected, after informed consent approved by the Institutional Review Board of the Vanderbilt University (Nashville, Tenn.), from patients undergoing coronary artery bypass or peripheral vascular bypass surgery. The veins were stored in a saline solution until the end of the surgical procedure at which time they were placed in cold transplant harvest buffer (100 mM potassium lactobionate, 25 mM KH2PO4, 5 mM MgSO4, 30 mM raffinose, 5 mM adenosine, 3 mM glutathione, 1 mM allopurinol, 50 g/L hydroxyethyl starch, pH 7.4). The vessels were tested within 24 hrs of harvest and storage in transplant harvest buffer at 4° C. Veins were cleaned off fat and adventitial tissues and the endothelium was removed. […] The rings were contracted with 110 mM KCl (with equimolar replacement of NaCl in bicarbonate buffer), and the force generated was measured and converted to stress [Newtons (N)/m^2]==force (g)×0.0987/area, where area is equal to the wet weight [mg/length (mm at maximal length)] divided by 1.055. […] Rings were treated with 0.5 μM norepinephrine (NE), 1 mM papaverine (Pap), or 1 mM papaverine for 10 min followed by 0.5 μM NE and force generated was measured and converted to stress. […]
compound,measurement,setting,value
"CC(C)O [50% isopropyl alcohol, isopropyl alcohol]","average stress, contraction with 110 mM KCl",[1],0.005±0.003 10^5 N/m^2
same,"average stress, contraction with KCl",[2],5 ± 5 N/m^2
COc1cc(S(=O)(=O)[O-])c(C)cc1N=Nc1c(O)ccc2cc(S(=O)(=O)[O-])ccc12.[Na+].[Na+] [Allura Red],restoration of functional viability (contractile response to KCl) after stretch injury,[3],did not restore functional viability
same,distension induced increases in intimal thickening,[4],but not allura red inhibited distension induced increases in intimal thickening
CN(C)c1ccc2nc3ccc(=[N+](C)C)cc-3sc2c1 [methylene blue],"average stress, contraction with 110 mM KCl",[1],0.014±0.01 10^5 N/m^2
COc1ccc(Cc2nccc3cc(OC)c(OC)cc23)cc1OC [papaverine],"change of basal tension, percentage of the maximal initial KCl contraction",[5]; 1 mM papaverine,−15.0±3.135%
same,"histamine induced contraction after papaverine, percentage of the maximal initial KCl contraction","[5]; 1 mM papaverine 10 min then 5 μM histamine, histamine alone 98.613±11.049",−12.0±4.163%
same,"KCl induced contraction after papaverine, percentage of the maximal initial KCl contraction","[5]; 1 mM papaverine 10 min then 110 mM KCl, KCl alone 103.33±2.404",−20.0±10.00%
same,histamine and KCl induced contractions (in words),"[5]; preincubation with papaverine, FIGS. 18A-B",inhibits histamine and KCl induced contractions
same,"norepinephrine induced contraction after papaverine, percentage of the maximal initial KCl contraction","[6]; 1 mM papaverine 10 min then 0.5 μM NE, NE alone 89.935±18.344",−3.210±5.119%
same,norepinephrine induced contractions (in words),"[6]; preincubation with papaverine, FIGS. 19A-B",inhibits norepinephrine induced contractions
